Experimental data published in patent US10300026B2, “Use of dihydroxyacetone in preparation of anti-cancer medicaments” (priority 2015, dated 2019).
pIC50: −log10 of the molar value.

Experiments:
TT = experiment: CellTiter-Glo cell viability, TT (human thyroid cancer cell); type: cell-based; settings: Homo sapiens, 72 hours, n=4, read-out: IC50 calculated based on the concentration of dihydroxyacetone
Protocol: (§1) 15 g of the commercially available 1,3-dihydroxyacetone in the solid powder form was added into 100 mL of 5% glucose (infusion bottle), then filled into 100 bottles.
(§2) After digesting the cells and counting (counting suspended cells directly), the cells were diluted to 1.25×10^5 cells/ml, inoculated into a 384-well plate (5000 cells/well) with 40 μl per well, centrifuged at 1500 rpm for 1 min, placed into the incubator and incubated overnight.
(§3) The medicaments were diluted in gradient with a 5% glucose solution to 5×, respectively. Each well was dosed with 10 μl medicament, with 4 wells (n=4) for each concentration. The cell viability was measured with Luminescence Cell Viability Assay kit after incubating for 72 hours in an incubator.
(§4) CellTiter-Glo reagent was added into each well, the volume of which is the same as that of medium. It was shaked on a shaker for 5 min, centrifuged at 1500 rpm for 1 min, and incubated in the dark at room temperature for 15 min. Then the chemiluminescence was detected with BMG PHERAstar.
(§5) The cell viability was calculated by using the following formula: Cell viability (Viability %)=100%×(LUMsample to be measured−LUMblank)/(LUMsolvent control−LUMblank)
(§6) The curve of Log[concentration] versus cell viability was fitted using Prism 6 to calculate IC50 of sample for each cell line.

A673 = experiment: CellTiter-Glo cell viability, A673 (human rhabdomyoma cell); type: cell-based; settings: Homo sapiens, A673, 72 h, read-out: IC50 calculated based on the concentration of dihydroxyacetone
Protocol: as §1, §2, §3, §4, §5, §6

A2780 = experiment: CellTiter-Glo cell viability, A2780 (human ovarian cancer cell line); type: cell-based; settings: Homo sapiens, A2780, 72 h, read-out: IC50 calculated based on the concentration of dihydroxyacetone
Protocol: as §1, §2, §3, §4, §5, §6

Caki-1 = experiment: CellTiter-Glo cell viability, Caki-1 (human renal clear cell carcinoma skin metastatic cell); type: cell-based; settings: Homo sapiens, CAKI-1, 72 h, read-out: IC50 calculated based on the concentration of dihydroxyacetone
Protocol: as §1, §2, §3, §4, §5, §6

SW480 = experiment: CellTiter-Glo cell viability, SW480 (human colorectal cancer cell); type: cell-based; settings: Homo sapiens, SW480, 72 h, read-out: IC50 calculated based on the concentration of dihydroxyacetone
Protocol: as §1, §2, §3, §4, §5, §6

A375 = experiment: CellTiter-Glo cell viability, A375 (human malignant melanoma cell); type: cell-based; settings: Homo sapiens, A-375, 72 h, read-out: IC50 calculated based on the concentration of dihydroxyacetone
Protocol: as §1, §2, §3, §4, §5, §6

HCC1937 = experiment: CellTiter-Glo cell viability, HCC1937 (human breast cancer cell); type: cell-based; settings: Homo sapiens, HCC1937, 72 h, read-out: IC50 calculated based on the concentration of dihydroxyacetone
Protocol: as §1, §2, §3, §4, §5, §6

KB = experiment: CellTiter-Glo cell viability, KB (human oral cancer cell line); type: cell-based; settings: Homo sapiens, 72 h, read-out: IC50 calculated based on the concentration of dihydroxyacetone
Protocol: as §1, §2, §3, §4, §5, §6

H460 = experiment: CellTiter-Glo cell viability, H460 (human large cell lung cancer cell line); type: cell-based; settings: Homo sapiens, NCI-H460, 72 h, read-out: IC50 calculated based on the concentration of dihydroxyacetone
Protocol: as §1, §2, §3, §4, §5, §6

Calu-6 = experiment: CellTiter-Glo cell viability, Calu-6 (human degenerative cancer cell); type: cell-based; settings: Homo sapiens, Calu-6, 72 h, read-out: IC50 calculated based on the concentration of dihydroxyacetone
Protocol: as §1, §2, §3, §4, §5, §6

S180 = experiment: CellTiter-Glo cell viability, S180 (S180 sarcoma cells); type: cell-based; settings: S-180, 72 h, read-out: IC50 calculated based on the concentration of dihydroxyacetone
Protocol: as §1, §2, §3, §4, §5, §6

SMMC-7721 = experiment: CellTiter-Glo cell viability, SMMC-7721 (human hepatoma cell line); type: cell-based; settings: Homo sapiens, SMMC-7721, 72 h, read-out: IC50 calculated based on the concentration of dihydroxyacetone
Protocol: as §1, §2, §3, §4, §5, §6

HCCLM3 = experiment: CellTiter-Glo cell viability, HCCLM3 (human high metastatic hepatoma cell); type: cell-based; settings: Homo sapiens, HCCLM3, 72 h, read-out: IC50 calculated based on the concentration of dihydroxyacetone
Protocol: as §1, §2, §3, §4, §5, §6

HT29 = experiment: CellTiter-Glo cell viability, HT29 (human colon cancer cell line); type: cell-based; settings: Homo sapiens, HT-29, 72 h, read-out: IC50 calculated based on the concentration of dihydroxyacetone
Protocol: as §1, §2, §3, §4, §5, §6

RPMI8226 = experiment: CellTiter-Glo cell viability, RPMI8226 (multiple myeloma); type: cell-based; settings: Homo sapiens, RPMI-8226, 72 h, read-out: IC50 calculated based on the concentration of dihydroxyacetone
Protocol: as §1, §2, §3, §4, §5, §6

[1] = system: human large cell lung cancer H460 cell transplantation tumor; experiment: H460 cell transplantation tumor model in naked mice; type: in vivo, Balb/c-nude naked mice
Protocol: Naked mice were subcutaneously inoculated with H460 cells (human large cell lung cancer cell line). When tumors grew to about 100 mm^3, 36 naked mice with similar tumor volume and good shape were selected from 70 naked mice, divided into 6 groups with 6 animals in each group;
Cisplatin: 4 mg/kg, volume of injection was 0.1 mL/10 g, i.p, administration once every 5 days, three weeks in total;
Cisplatin group: 4 mg/kg, volume of injection was 0.1 mL/10 g, i.p, administration once every 5 days, three weeks in total;
Blank group: 0.9% sodium chloride injection, mode of administration was same as DHA group.
3.1.3 Naked mice were inoculated subcutaneously at the right side of back, 0.1 mL/mouse, i.e. each naked mouse was inoculated 2×10^6 cells;
3.2.1 When tumors grew to about 100 mm^3, 36 naked mice with similar tumor volume and good shape were selected from 70 naked mice, and divided into 6 groups with 6 animals in each group.
The mixture was refrigerated at 4° C. when not used. […] 4 mL of 0.6 mg/mL cisplatin solution were measured and added with 2.0 mL physiological saline to formulate a 0.4 mg/mL (4 mg/kg) cisplatin solution. The solution was refrigerated at 4° C. when not used.
The tumor volume and body weight were measured three times per week from the first day of administration. Naked mice were sacrificed on 22th day. The tumors were taken out, weighed and photographed. The tumor inhibition rate was calculated.
The calculation formula is: TV=½×a×b^2, where a and b represents length and width, respectively.
The calculation formula is: RTV=TVt/TV1, where TV1 is a tumor volume when being caged and administrated (i.e., d1), TVt is a tumor volume at each measurement.
The calculation formula is: […]
TRTV: RTV of treatment group; CRTV: RTV of blank control group.
TTW: tumor weight of treatment group; CTW: tumor weight of blank control group; TW: tumor weight.

T24 = experiment: CellTiter-Glo cell viability, T24 (human bladder transitional cell carcinoma cell); type: cell-based; settings: Homo sapiens, T-24, 72 h, read-out: IC50 calculated based on the concentration of dihydroxyacetone
Protocol: as §1, §2, §3, §4, §5, §6

BEL-7402 = experiment: CellTiter-Glo cell viability, BEL-7402 (human hepatoma cell line); type: cell-based; settings: Homo sapiens, Bel-7402, 72 h, read-out: IC50 calculated based on the concentration of dihydroxyacetone
Protocol: as §1, §2, §3, §4, §5, §6

WIL2-S = experiment: CellTiter-Glo cell viability, WIL2-S (human B lymphocyte); type: cell-based; settings: Homo sapiens, Lymphocyte, 72 h, read-out: IC50 calculated based on the concentration of dihydroxyacetone
Protocol: as §1, §2, §3, §4, §5, §6

HepG2 = experiment: CellTiter-Glo cell viability, HepG2 (human hepatoma cell line); type: cell-based; settings: Homo sapiens, HepG2, 72 h, read-out: IC50 calculated based on the concentration of dihydroxyacetone
Protocol: as §1, §2, §3, §4, §5, §6

SGC7901 = experiment: CellTiter-Glo cell viability, SGC7901 (human gastric adenocarcinoma cell); type: cell-based; settings: Homo sapiens, SGC-7901, 72 h, read-out: IC50 calculated based on the concentration of dihydroxyacetone
Protocol: as §1, §2, §3, §4, §5, §6

HL-60 = experiment: CellTiter-Glo cell viability, HL-60 (human leukemic cell line); type: cell-based; settings: Homo sapiens, HL-60, 72 h, read-out: IC50 calculated based on the concentration of dihydroxyacetone
Protocol: as §1, §2, §3, §4, §5, §6

[2] = D20, H460 tumor naked mice, cisplatin 4 mg/kg i.p. once every 5 days, DHA p.o. 0.1 mL/10 g bid

## O=C(CO)CO [Dihydroxyacetone, 1,3-dihydroxyacetone]
TT
  pIC50: 2.44
A673
  pIC50: 2.42
A2780
  pIC50: 1.97
Caki-1
  pIC50: 2.00
SW480
  pIC50: 2.10
A375
  pIC50: 2.21
HCC1937
  pIC50: 1.99
KB
  pIC50: 2.12
H460
  pIC50: 2.42
Calu-6
  pIC50: 1.96
S180
  pIC50: 3.02
SMMC-7721
  pIC50: 2.29
HCCLM3
  pIC50: 2.26
HT29
  pIC50: 2.36
RPMI8226
  pIC50: 2.74
[1]; D1 (first day of administration), H460 tumor naked mice
  TV (mm^3) D1: 90.47 ± 9.91 mm^3
[1]; D1 (first day of administration), H460 tumor naked mice, cisplatin 4 mg/kg i.p. once every 5 days, DHA p.o. 0.1 mL/10 g bid
  Body weight (g) D1: 21.4 ± 0.7 g
[1]; [2]
  Body weight (g) D20: 23.7 ± 1.3 g
  TV (mm^3) D20: 2300.4 ± 585.1 mm^3
[1]; D20, RTV=TVt/TV1, cisplatin 4 mg/kg i.p. once every 5 days, DHA p.o. 0.1 mL/10 g bid
  RTV D20 (relative tumor volume): 25.5 ± 6.2
[1]; H460 tumor naked mice, vs blank
  Effect of tumor inhibition: did not exhibit a significant effect of tumor inhibition
[1]; final, vs blank control group RTV, cisplatin 4 mg/kg i.p. once every 5 days, DHA p.o. 0.1 mL/10 g bid
  T/C (%) relative tumor proliferation rate: 142.0%
[1]; mouse, in vivo
  Toxic reaction: no toxic reaction
[1]; tumors taken out at sacrifice on 22th day, cisplatin 4 mg/kg i.p. once every 5 days, DHA p.o. 0.1 mL/10 g bid
  Tumor Weight TW: 1.76 ± 0.44 g
[1]; vs blank control group tumor weight, cisplatin 4 mg/kg i.p. once every 5 days, DHA p.o. 0.1 mL/10 g bid
  Tumor Weight Inhibition Rate IR (%): −50.6%
T24
  pIC50: 2.12
BEL-7402
  pIC50: 2.17
WIL2-S
  pIC50: 1.92
HepG2
  pIC50: 1.92
SGC7901
  pIC50: 2.43
HL-60
  pIC50: 2.56
